This is an account of results in patent US20260355318A1, “MOLECULAR MACHINES FOR TREATMENT OF CANCER, FUNGAL INFECTIONS, OR BACTERIAL INFECTIONS” (priority 2022, published 2026).

For one data set, the system named is C. albicans. Nature of the data set: Time-kill assay, C. albicans. The following applies: C. albicans, 2×MIC, 405-nm light at 292 mW cm^−2. It counts as cell-based, Candida albicans. As for the experimental part: For yeasts, five independent colonies were collected from 24-h SDAE plates, inoculated into yeast peptone with 2% dextrose (YPD), and grown for 24 h at 30 °C. Cells were then sub-cultured in fresh medium and grown for ~9 h. Afterward, the cells were centrifuged (5,000 ×g, 5 min), washed, and resuspended in phosphate-buffered saline (PBS) to ~10^6 CFU mL^−1. For A. fumigatus, conidia suspensions (~10^4 CFU mL^−1) were prepared in PBS as previously described.
Amphotericin B (AMB, 4×MIC) controls were prepared likewise, but light was omitted. Aliquots were collected in 1-min increments for up to 10 min, serially diluted in PBS, and plated on SDAE medium. Plates were incubated at 30 ° C for 48 h with confirmation after 72 h (yeasts) or at 28 ° C for 7 days with confirmation after 14 days (A. fumigatus), after which the CFU number was determined. The results were expressed as the logarithm of base 10 of the ratio between the CFU at each time point and the CFU at time 0. The detection limit of the method was ~1 log10 CFU mL^−1.

In a further data set the test system is E. cloacae. Kind of data set: MIC, E. cloacae. It is filed as cell-based. The note with it: Enterobacter cloacae, read-out: MIC of MM. As for the experimental part:
The appropriate volume of an MM stock at 8 mM necessary to achieve a concentration ranging from 0.3125 to 40 μM was pipetted into a 2 mL microcentrifuge tube to which 1 mL of cell suspension prepared as previously described was added. Corresponding negative controls (DMSO only) were prepared in the same way. The mixture was gently mixed by pipetting and incubated in the dark at 30 or 37 ° C, depending on the strain, for 30 min with agitation (220 rpm). Afterward, MM- or DMSO-treated cells were dispensed in one well of a 24-well plate positioned in the center of the light beam (405 nm LED Light, Prizmatix, UHP—F-5-405) placed at the appropriate distance necessary to achieve the desired light intensity of 304 mW cm-2, 146 mW cm2 or 87 mW cm2, as measured with a handheld digital power meter console coupled to an S415C thermal power sensor head (Thorlabs, Newton, MA, USA). The temperature during irradiation was monitored using a thermocouple probe (Model SC-TT-K-30-36-PP; Omega Engineering, Inc., Stanford, CT, USA). Samples were agitated during irradiation. Dark controls were prepared as previously described except that no irradiation was provided. […]

The subject of another data set is E. coli transcripts. Nature of the data set: RNAseq of MM 1-treated E. coli. It counts as cell-based, Escherichia coli. As for the experimental part: Three independent, well-isolated colonies of E. coli were cultured to mid-log phase in MHB media. Cells were collected and resuspended in PBS (1×) to an OD600 of ≈0.05. […] Cells were then irradiated for 5 min at 146 mW cm^−2 (43.8 J cm^−2). Bacterial cells were collected onto a 0.2 μm PES filter by low vacuum filtration. Two volumes of RNAprotect (Qiagen, Valencia, CA) were added to the cells, and the samples were then centrifuged at 5000 g for 25 min at 4 ° C to pellet cells. RNA was isolated using the RNeasy Mini Kit (Qiagen, Valencia, CA) per the manufacturer's instructions. RNA sequencing (RNAseq) and data analysis were performed by DNA Link Inc. (Seoul, Republic of Korea). RNA-Seq libraries were constructed by using TruSeq Stranded Total RNA with Ribo-Zero Plus rRNA Depletion Kit and sequenced on the Illumina NovaSeq6000 platform (Illumina, San Diego, CA) in the 100 nt, paired-end configuration. From each sample, an average of 70 million reads was obtained. For gene expression analysis, reads were trimmed with cutadapt (Magoc et al., 2013) and aligned to the reference genome of Escherichia coli str. K-12 substr. MG1655 (NC_000913) using EDGE-pro pipeline with default setting. Differential expression analysis was performed with DESeq2 in Bioconductor (Love et al., 2014). Gene annotation was performed using an in-house script based on NCBI reference annotations.

Broadly, the MIC is the lowest concentration found to suppress growth.

In the case of `C[C@@H]1Cc2ccc3ccccc3c2/C1=C1\c2ccccc2Sc2cc(NCCN)ccc21` (racemic) [MM 6, N^1-(9-(2-methyl-2,3-dihydro-1H-cyclopenta[a]naphthalen-1-ylidene)-9H-thioxanthen-3-yl)ethane-1,2-diamine], the “time to reduce cell numbers to limit of detection” value in the data set with C. albicans came to 5 min. Also, the minimum inhibitory concentration (MIC) with E. cloacae came to 10 µM.

As for `C[C@@H]1Cc2ccc3ccccc3c2/C1=C1\c2ccccc2Sc2cc(NCCN(C)C)ccc21` [MM 1, N^1N^1-dimethyl-N^2-(9-(2-methyl-2,3-dihydro-1H-cyclopenta[a]naphthalen-1-ylidene)-9H-thioxanthen-3-yl) ethane-1,2-diamine], the “transcripts significantly more abundant in MM-treated samples” value in the data set with E. coli transcripts (0.5×MIC) stood at 1362 transcripts. In the data set on E. coli transcripts (0.5×MIC, p<0.05), the “transcripts with significantly different levels vs DMSO” value is 2694 transcripts. The “transcripts significantly more abundant in DMSO controls” value with E. coli transcripts (MM 1 0.5×MIC versus DMSO) is recorded as 1332 transcripts. For the same compound, the “maximum difference in transcript abundance between treatments” value with E. coli transcripts (MM 1 versus DMSO) is on record as at most 5 fold. Further, the “Transcript Fold Change, argC” value with E. coli transcripts (gene argC, p<0.05, 5 min) came to 2.0. The “Transcript Fold Change, argF” value with E. coli transcripts (gene argF, p<0.05, 5 min) was 2.2. Also, the “Transcript Fold Change, argI” value in the data set on E. coli transcripts (gene argI, p<0.05, 5 min) is reported as 2.8. In the data set on E. coli transcripts (gene artJ, p<0.05, 5 min), the “Transcript Fold Change, artJ” value is on record as 2.5. The “Transcript Fold Change, asr” value with E. coli transcripts (gene asr, p<0.05, 5 min) came out at 2.2. In the data set with E. coli transcripts (gene bfd, p<0.05, 5 min), the “Transcript Fold Change, bfd” value is listed as 2.0. The “Transcript Fold Change, cdh” value in the data set with E. coli transcripts (gene cdh, p<0.05, 5 min) is 2.5. Moreover, the “Transcript Fold Change, prpB” value in the data set with E. coli transcripts (gene prpB, p<0.05, 5 min) came to 5.5. Further, the “Transcript Fold Change, prpC” value in the data set on E. coli transcripts (gene prpC, p<0.05, 5 min) is listed as 5.0. The “Transcript Fold Change, tauA” value in the data set on E. coli transcripts (gene tauA, p<0.05, 5 min) is reported as 2.5. Moreover, the “Transcript Fold Change, tynA” value in the data set on E. coli transcripts (gene tynA, p<0.05, 5 min) amounted to 2.6. Moreover, the “Transcript Fold Change, yiaW” value with E. coli transcripts (gene yiaW, p<0.05, 5 min) is reported as 2.2. The “Transcript Fold Change, ymdF” value with E. coli transcripts (gene ymdF, p<0.05, 5 min) was 2.4. Moreover, the “Transcript Fold Change, ymgC” value in the data set on E. coli transcripts (gene ymgC, p<0.05, 5 min) was 2.3.
